Results from patent US10731159B2, “Cationic lipid” (DAIICHI SANKYO COMPANY, LIMITED, priority 2013, dated 2020).

How the values were obtained:
[1] = Average particle size of nucleic acid lipid particle (NICOMP 380ZLS); assay type: physicochemical
Description: The particle size of the liposome was measured using Zeta Potential/Particle Sizer NICOMP™ 380ZLS (Particle Sizing Systems, LLC). In the tables, the average particle size is indicated by a volume-average particle size, and the numeric value following ±represents a deviation.

[2] = Rate of encapsulation of polynucleotide/mRNA (Quant-iT RiboGreen, with and without Triton X-100); assay type: physicochemical
Description: The rate of encapsulation of the double-stranded polynucleotide was measured using Quant-iT RiboGreen RNA Assay kit (Invitrogen Corp.) according to the attached document.
(§1) Specifically, the double-stranded polynucleotide in the nucleic acid lipid particle dispersion was quantified in the presence and absence of a 0.015% Triton X-100 detergent, and the rate of encapsulation was calculated according to the following expression: {[Amount of the double-stranded polynucleotide in the presence of the detergent]−[Amount of the double-stranded polynucleotide in the absence of the detergent]}/[Amount of the double-stranded polynucleotide in the presence of the detergent]}×100(%) (3) Ratio of Double-Stranded Polynucleotide to Lipid
The rate of encapsulation of the mRNA was measured using Quant-iT RiboGreen RNA Assay kit (Invitrogen Corp.) according to the attached document.
as §1, with “mRNA” for “double-stranded polynucleotide”, “mRNA” for “Double-Stranded Polynucleotide”

[3] = Ratio of polynucleotide/mRNA to lipid (wt/wt); assay type: physicochemical
Description: The nucleic acid lipid particle dispersion was mixed with acetonitrile and chloroform at a ratio of 1:1:1 and centrifuged at 15,000 rpm for 2 minutes. Then, the aqueous layer obtained as an upper layer was recovered, followed by the extraction of the double-stranded polynucleotide. The amount of the double-stranded polynucleotide in the sample was measured by ion-exchange chromatography (system: Agilent 1100 series, column: TSKgel DEAE-2SW (2.6×150 mm) (Tosoh Corp), buffer A: 20% acetonitrile, buffer B: 20% acetonitrile and 1.6 M ammonium formate, gradient (B %): 30-55% (0-20 min), flow rate: 1 mL/min, temperature: 40° C., detection: 260 nm).
The amount of the phospholipid in the nucleic acid lipid particle dispersion was measured using Phospholipid C-Test Wako (Wako Pure Chemical Industries Ltd.) according to the attached document. Specifically, the phospholipid in the sample was quantified in the presence of a 1% Triton X-100 detergent.
(§2) The amounts of cholesterol and LP in the nucleic acid lipid particle dispersion were measured by reverse-phase chromatography (system: Agilent 1100 series, column: Chromolith Performance RP-18 endcapped 100-3 monolithic HPLC-column (Merck), buffer A: 0.01% trifluoroacetic acid, buffer B: 0.01% trifluoroacetic acid and methanol, gradient (B %): 87-92% (0-10 min), flow rate: 2 mL/min, temperature: 50° C., detection: 205 nm).
(§3) The total amount of lipids was calculated from the amount of the phospholipid and the compositional ratio of lipid components constituting the liposome, and the ratio of the polynucleotide to the lipid was calculated from the aforementioned amount of the polynucleotide and the total amount of lipids according to the following expression: [Double-stranded polynucleotide concentration]/[Total lipid concentration] (wt/wt)
as §3, with “phospholipid, the amount of cholesterol, and the amount of LP,” for “phospholipid”
The amount of the double-stranded polynucleotide in a sample from the nucleic acid lipid particle dispersion was measured in the presence of a 5% Triton X-100 detergent by ion-exchange chromatography (system: Agilent 1100 series, column: DNAPac PA200 (4×250 mm) (Thermo Fisher Scientific K.K.), buffer A: 10 mM Tris, 25 mM sodium perchlorate, and 20% ethanol, pH 7.0, buffer B: 10 mM Tris, 250 mM sodium perchlorate, and 20% ethanol, pH 7.0, gradient (B %): 20-70% (0-15 min), flow rate: 0.5 mL/min, temperature: 40° C., detection: 260 nm).
as §2, with “82-92%” for “87-92%”
The total amount of lipids was calculated from the amount of the phospholipid, the amount of cholesterol, and the amount of LP, and the compositional ratio of lipid components constituting the liposome, and the ratio of the mRNA to the lipid was calculated from the “amount of the mRNA in the presence of the detergent” of the preceding paragraph (2) according to the following expression: [mRNA concentration in the presence of the detergent]/[Total lipid concentration] (wt/wt)

human β-catenin gene [4] = test: Test Example 1: β-catenin gene expression inhibition in SW480 cells, 3 days, real-time PCR; assay type: cell-based; settings: for inhibitory activity against β-catenin gene expression (in words): compared with particle containing lipid of Reference Example 2; for IC50: nucleic acid lipid particle of Example 31 containing the named lipid, double-stranded polynucleotide concentration, read-out: β-catenin gene expression inhibitory activity IC50
Description: (§4) As described below, the strength of human β-catenin gene expression inhibitory activity was compared among nucleic acid lipid particles each prepared using a novel lipid.
(§5) The concentration of a human colorectal cancer SW480 cell line (derived from human colorectal adenocarcinoma) was adjusted to 50,000 cells/mL in an RPMI1640 medium (manufactured by Invitrogen Corp.) containing 10% fetal bovine serum (culture medium). Then, the resulting culture solution was inoculated at 100 μL/well to a 96-well flat-bottomed plate (manufactured by Corning Inc./Falcon) and cultured at 37° C. for 1 day under 5.0% CO2. The nucleic acid lipid particle dispersion prepared in Example 31 was diluted with a culture medium to prepare dilution series having final double-stranded polynucleotide concentrations of 30, 3.0, 0.3, and 0.03 nM in the medium. Then, each dilution was added to the cells after removal of the culture supernatant, and the culture was further continued for 3 days. This operation was performed at N=3 for each concentration.
(§6) A lysate and cDNA for real-time PCR measurement were prepared from the transfected cells using TaqMan® Fast-Cells-to-Ct kit (Life Technologies, Inc./Ambion) according to the instruction manual. In the lysate preparation, Lysis Solution supplemented with DNase I was used. The probes for real-time PCR used were TaqMan® Gene Expression Assays (CTNNB1, FAM probe) (Hs00355045_m1, manufactured by Applied Biosystems, Inc.) for the human β-catenin gene and a human GAPDH gene probe as an internal standard (VIC probe, Hs99999905_m1, manufactured by Applied Biosystems, Inc.). 5 μL of TaqMan® Fast Advanced Master Mix, 2 μL of RNase-Free Water, 0.5 μL of each gene probe, and 2 μL of the prepared cDNA solution were added per well of a 384-well PCR plate (manufactured by Applied Biosystems, Inc.) to bring the total amount to 10 μL, which was then loaded in ViiA™ 7 Real-time PCR system (manufactured by Applied Biosystems, Inc.) and subjected to PCR under conditions given below. The real-time PCR was carried out at N=4 for the cDNA prepared from the lysate.
(§7) PCR initial activation: 95° C. for 20 seconds
(§8) PCR: 95° C. for 1 second • 62° C. for 20 seconds
(§9) This PCR cycle was repetitively performed 40 times.
(§10) The quantitative analysis was conducted by the ΔΔCt method.

human β-catenin gene [5] = test: Test Example 2: β-catenin gene expression inhibition in HepG2 cells, 3 days, real-time PCR; assay type: cell-based; settings: for inhibitory activity against β-catenin gene expression (in words): compared with particle containing lipid of Reference Example 2; for IC50: nucleic acid lipid particle of Example 31 containing the named lipid, read-out: β-catenin gene expression inhibitory activity IC50
Description: as §4
The concentration of a human liver cancer HepG2 cell line (derived from human liver cancer) was adjusted to 50000 cells/mL in a DMEM medium (manufactured by Invitrogen Corp.) containing 10% fetal bovine serum (culture medium). Then, the resulting culture solution was inoculated at 100 μL/well to a 96-well flat-bottomed plate (manufactured by Corning Inc./Falcon) and cultured at 37° C. for 1 day under 5.0% CO2. The nucleic acid lipid particle-containing dispersion prepared in Example 31 was diluted with a culture medium to prepare dilution series having final double-stranded polynucleotide concentrations of 30, 3, 0.3, and 0.03 nM in the medium. Then, each dilution was added to the cells after removal of the culture supernatant, and the culture was further continued for 3 days. This operation was performed at N=3 for each concentration.
as §6, §7, §8, §9, §10

human β-catenin gene [6] = test: Test Example 8: β-catenin gene expression inhibition in SW480 cells, procedures of Test Example 3, 50-0.05 nM; assay type: cell-based; settings: for inhibitory activity against β-catenin gene expression (in words): compared with particle containing lipid of Reference Example 2; for IC50: procedures of Test Example 3, 50, 5, 0.5, 0.05 nM, particles of Example 55, read-out: β-catenin gene expression inhibitory activity IC50
Description: as §5, with “to 50000” for “to 50,000”, “in a” for “in an”, “lipid particle-containing” for “lipid particle”, “30, 3,” for “30, 3.0,”, “for 4 hours.” for “for 3 days.”
as §6, §10
By the same procedures as in Test Example 3, SW480 cells were treated with 50 nM, 5 nM, 0.5 nM, and 0.05 nM each of nucleic acid lipid particles each prepared using a novel lipid, and the strength of human β-catenin gene expression inhibitory activity was compared among these particles.

[7] = particles of Example 31, volume-average particle size ± deviation
[8] = particles of Example 31: DSPC:Chol:LP:PEG-C-DMA=20:48:30:2, CT-157/CT-169 double-stranded polynucleotide
[9] = particles of Example 31, total lipids calculated from phospholipid amount and compositional ratio (Table 3)
[10] = Example 55: particles prepared as in Example 31, ± deviation
[11] = Example 55: particles prepared as in Example 31 (β-catenin double-stranded polynucleotide)
[12] = Example 55: particles prepared as in Example 31

Compound	Average particle size [1, 10]	Rate of polynucleotide encapsulation [2, 11]	Ratio of polynucleotide to lipid siRNA/lipid [3, 12]	IC50 (human β-catenin gene [6])	Average particle size [1, 7]	Rate of polynucleotide encapsulation [2, 8]	Ratio of polynucleotide to lipid siRNA/lipid [3, 9]	inhibitory activity against β-catenin gene expression (in words) (human β-catenin gene [4])	IC50 (human β-catenin gene [4])	inhibitory activity against β-catenin gene expression (in words) (human β-catenin gene [5])	IC50 (human β-catenin gene [5])	inhibitory activity against β-catenin gene expression (in words) (human β-catenin gene [6])
CCCCC/C=C\C/C=C\CCCCCCCCC(CCCCCCCC/C=C\C/C=C\CCCCC)OC(=O)OCCCN(C)C [Example 1, 3-(Dimethylamino)propyl(6Z,9Z,28Z,31Z)-heptatriaconta-6,9,28,31-tetraen-19-yl Carbonate]					183 ± 41 nm	94.3%	0.109 wt/wt	strong inhibitory activity	3.5 nM	strong inhibitory activity	0.38 nM	
CCCCC/C=C\C/C=C\CCCCCCCC(CCCCCCC/C=C\C/C=C\CCCCC)OC(=O)OCCCN(C)C [Example 2, 3-(Dimethylamino)propyl(6Z,9Z,26Z,29Z)-pentatriaconta-6,9,26,29-tetraen-18-yl Carbonate]					215 ± 70 nm	96.3%	0.099 wt/wt	strong inhibitory activity	6.8 nM	strong inhibitory activity	0.47 nM	
CCCCC/C=C\C/C=C\CCCCCCCC(CCCCCCC/C=C\C/C=C\CCCCC)OC(=O)OCCCCN(C)C [Example 3, 4-(Dimethylamino)butyl(6Z,9Z,26Z,29Z)-pentatriaconta-6,9,26,29-tetraen-18-yl Carbonate]					187 ± 31 nm	98.6%	0.099 wt/wt	strong inhibitory activity	0.44 nM	strong inhibitory activity	0.35 nM	
CCCCCC[C@H](C/C=C\CCCCCCCC(CCCCCCC/C=C\C[C@@H](CCCCCC)OC(=O)CC)OC(=O)OCCCN(C)C)OC(=O)CC [Example 41, (7R,9Z,26Z,29R)-18-({[3-(Dimethylamino)propoxy]carbonyl}oxy)pentatriaconta-9,26-diene-7,29-diyl Dipropionate]	158 ± 40 nm	97%	0.101 wt/wt	2.6 nM								strong inhibitory activity

Second part, led by results:

Average particle size [1, 10]	Rate of polynucleotide encapsulation [2, 11]	Ratio of polynucleotide to lipid siRNA/lipid [3, 12]	IC50 (human β-catenin gene [6])	Compound	Average particle size [1, 7]	Rate of polynucleotide encapsulation [2, 8]	Ratio of polynucleotide to lipid siRNA/lipid [3, 9]	inhibitory activity against β-catenin gene expression (in words) (human β-catenin gene [4])	IC50 (human β-catenin gene [4])	inhibitory activity against β-catenin gene expression (in words) (human β-catenin gene [5])	IC50 (human β-catenin gene [5])	inhibitory activity against β-catenin gene expression (in words) (human β-catenin gene [6])
188 ± 45 nm	97%	0.077 wt/wt	6 nM	CCCCCC[C@H](C/C=C\CCCCCCCCC(CCCCCCCC/C=C\C[C@@H](CCCCCC)OC(C)=O)OC(=O)OCCCN(C)C)OC(C)=O [Example 42, (7R,9Z,28Z,31R)-19-({[3-(Dimethylamino)propoxy]carbonyl}oxy)heptatriaconta-9,28-diene-7,31-diyl Diacetate]								strong inhibitory activity
174 ± 31 nm	97%	0.075 wt/wt	24 nM	CCCCCCCCCCCCC(CCCCCCC/C=C\C[C@@H](CCCCCC)OC(C)=O)OC(=O)OCCCN(C)C (stereo partly drawn) [Example 43, (7R,9Z)-18-({[3-(Dimethylamino)propoxy]carbonyl}oxy)triacont-9-en-7-yl Acetate]								strong inhibitory activity
